The values that follow come from patent publication US11008612B2, “Methods and apparatus for single molecule sequencing using energy transfer detection” (Life Technologies Corporation, priority 2009, dated 2021).

Data set [1] is described as follows: solubility of core nanoparticles in solvents.
Text: The solubility of the aliquoted samples was observed. […] Six of the aliquoted samples were centrifuged and the resulting clear, colorless supernatants were discarded.
For data set [2], the system named is duplex Alexa fluor 546 dye-labeled-DNA template and AF647-C6-dG6P. Description: Stopped-flow measurements of tpol (nucleotide incorporation kinetics). It counts as biochemical. The settings on record: 330 nM polymerase, 100 nM template/primer duplex, 7 μM AF647-C6-dG6P, 2 mM MnCl2; tpol = 1/kpol. Here is the method:
The kinetics of nucleotide incorporation by B103 (exo-) (SEQ ID NO:5) and an H370R mutant (SEQ ID NO:3) DNA polymerases were measured in an Applied Photophysics SX20 stopped-flow spectrometer by monitoring changes in fluorescence from a duplex Alexa fluor 546 dye-labeled-DNA template following the mixing of the enzyme-DNA complex with dye-labeled nucleotides (AF647-C6-dG6P) in the reaction buffer containing 50 mM Tris-HCl, pH 7.5, 50 mM NaCl, 4 mM DTT, 0.2% BSA, and 2 mM MnCl2. The reactions included 330 nM recombinant DNA polymerase, 100 nM template/primer duplex, and 7 μM labeled nucleotides.
The averaged (5 traces) stopped-flow fluorescence traces (>1.5 ms) were fitted with a double exponential equation (1) to extrapolate the rates of the nucleotide binding and product release, Fluorescence=A1*e^−k^1^*t+A2*e^−k^pol^*t+C (equation 1) where A1 and A2 represent corresponding fluorescence amplitudes, C is an offset constant, and k1 and kpol are the observed rate constants for the fast and slow phases of the fluorescence transition, respectively. The dye-labeled nucleotides comprise terminal-phosphate-labeled nucleotides having an alkyl linker with a functional amine group attached to the dye. The stopped-flow techniques for measuring tpol (1/kpol) followed the techniques described by M P Roettger (2008 Biochemistry 47:9718-9727; M. Bakhtina 2009 Biochemistry 48:3197-320). 2) B103 Polymerase: Stopped-Flow Measurements of t−1

In data set [3] the test system is [enzyme⋅DNA⋅labeled nucleotide] ternary complex (AF647-C6-dG6P). In words: Stopped-flow measurements of t−1 (nucleotide dissociation from ternary complex). It counts as binding. Conditions: ternary complex mixed with 50 μM cognate non-labeled dNTP, 2 mM MnCl2; t−1 = 1/k−1. The protocol: The rate of the nucleotide dissociation (k−1) from the ternary complex of [enzyme⋅DNA⋅nucleotide] was measured in an Applied Photophysics SX20 stopped-flow spectrometer by monitoring changes […] a duplex Alexa fluor 546 dye-labeled-DNA template following the mixing of the [enzyme⋅DNA⋅labeled nucleotide] ternary complex with 50 μM cognate non-labeled deoxynucleoside triphosphate in a buffer containing 50 mM Tris-HCl (pH 7.5), 50 mM NaCl, 4 mM DTT, 0.2% BSA, and 2 mM MnCl2.
The ternary complexes were prepared using: 330 nM polymerase, 100 nM template/primer duplex, and 7 μM terminal phosphate-labeled nucleotides (AF647-C6-dG6P).
The averaged stopped-flow fluorescence traces (>1.5 msec) were fitted with a single exponential equation (2) to extrapolate the rate of the nucleotide dissociation (k−1) from the [enzyme⋅DNA⋅nucleotide] ternary complex. Fluorescence=A1*e^−k^−1^*t+C (equation 2) where A1 represents the corresponding fluorescence amplitude, C is an offset constant, and k−1 and the observed rate constants for the fluorescence transition. The stopped-flow techniques for measuring t−1 (1/k−1) followed the techniques described by M. Bakhtina (2009 Biochemistry 48:3197-3208).

The test system of another data set is template. Description: template extension activity (DNA extension assay). It counts as biochemical. Conditions: stock unconjugated polymerase. Here is the method:
A 150 nM master mix solution of a labeled hairpin oligonucleotide 221 was prepared by diluting the appropriate quantity of a 50 μM stock solution with extension buffer (50 mM TRIS, pH 8, 50 mM NaCl, 10 mM MgCl2). 450 μl of a master mix was prepared for each sample being tested.
The conjugate being tested was diluted in 450 μl of the master mix such that the final concentration of the conjugate is in the range of 10 nM to 50 nM. The positive control samples of free PKAΦ29 were similarly diluted. The sample solution was deposited in four microtiter plate wells, at 100 μl/well.
The microtiter plate was placed in a plate reader (Molecular Devices, SpectraMax M5) and set up to monitor the fluorescence as function of time (excitation 490 nm, emission 535 nm, cutoff filter 515 nm). Just prior to starting the plate reader, 2 μl of 1 mM dATP was added to each of two microtiter wells to start the extension reaction. The other two microtiter wells with sample represent no extension controls. The plate was read for an hour or until the samples reached saturation. […]

With `CCOC(=O)CCCCCP(=O)(O)O` [6-ethoxy-6-oxohexylphosphonic acid], the solubility in solvents result in data set [1] was “not soluble in hexane”.
As to “B103 (exo-): B103 (exo-) DNA polymerase (SEQ ID NO:5)”, the tpol in data set [2] worked out at 14. The “t−1” value in data set [3] is given as 16.
“H370R: H370R mutant B103 DNA polymerase (SEQ ID NO:3)” displayed a tpol in data set [2] of 17. Further, in data set [3], the “t−1” value came out at 43.
The matching figures for “K509Y: B103 polymerase with amino acid substitution K509Y”: 10 and 20.
In the case of “stock HP1-B104-H370R (exo-) polymerase: stock His-tagged HP1-B103 H370R exo- polymerase (SEQ ID NO:3)”, the DNA extension assay with template came out at 0.29 base/sec/enzyme.
